This note sets out measurements from PubChem BioAssay (NCI).

Several values for one entry are separate records, joined by “and”; a condition that tells them apart may be missing. Equal entries are not always repeated.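 In this assay, cells in 96-well plates receive the compound at five concentrations for 48 hours. Endpoints are linearly interpolated between the surrounding concentrations. At the GI50, growth is halved. TGI is the concentration that stops growth completely.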

What all share (test): DTP human tumour cell line panel, 48 h
For test [1], the system named is CCRF-CEM leukemia.
In test [2] the test system is HOP-62 NSCLC.
The test system of test [3] is IGROV1 ovarian.
Test [4] has as its system K-562 leukemia.
Test [5] concerns KM12 colon.
In test [6] the test system is MALME-3M melanoma.
Test [7] has as its system MDA-MB-231 breast.
Test [8] has as its system NCI-H23 lung.
Test [9] deals with RPMI-8226 leukemia.
Test [10] relates to SNB-75 CNS.

As a reminder, the TGI is the concentration at which net growth stops. As for `O=C(Nc1ccccc1)N(C1=NCC(CI)S1)c1ccc(F)c(F)c1` (centres undefined), the TGI in test [1] was 75.9 µM; in test [2], > 100 µM; in [3] it was > 100 µM; in [4], > 100 µM; in [5] it was > 100 µM; in test [6], > 100 µM. Also, the TGI in [7] was 83.5 µM; in [8], > 100 µM; in [9], > 100 µM; in [10], 55.6 µM.

A word on the GI50: it is the concentration giving 50% growth inhibition. Turning to `CC(=O)c1c(-c2cccc3ccccc23)c(C#N)c(=S)n(C2OC(CO)C(O)C(O)C2O)c1C` (centres undefined), the TGI in test [1], in test [2], in [3], in test [4], in test [5] and in [6] was > 100 µM throughout. In addition, the concentration for total growth inhibition (TGI) in [7], in [8], in test [9] and in [10] was > 100 µM throughout. Besides, the GI50 in test [6] is > 100 µM; in test [7], > 100 µM and 37.5 µM.

Regarding `Cc1ccc(C(=N)c2ccccc2Cc2cccc3ccccc23)c2ccccc12`, the TGI in test [1], in test [2], in [3], in [4], in [5] and in [6] was > 100 µM each time. In addition, the TGI in test [7], in test [8] and in test [10] was > 100 µM throughout.

For the compound `COC1CC(N)(c2ccccc2)C(O)C(C)O1` (centres undefined), the TGI in [1], in test [2], in test [3], in test [4], in test [6] and in test [7] was > 100 µM throughout. The total growth inhibition concentration (TGI) in [8], in test [9] and in test [10] was > 100 µM in each case.

`N#CCCN(CCC#N)c1ccc(/C=C2\N=C(c3ccccc3)N(c3ccc(F)cc3)C2=O)cc1`: the TGI in test [2], in test [3], in [4], in test [5], in [6] and in test [7] was > 100 µM in each case. In addition, the TGI in test [9] and in test [10] was > 100 µM each time.

In the case of `[N-]=[N+]=Nc1c(Cc2ccccc2)c(Cl)nc2ccccc12`, the TGI is > 100 µM in [1]; 51 µM in test [2]; > 100 µM in test [3]; 83.7 µM in test [4]; 61.2 µM in [5]; 41.8 µM in test [6]. Further, the total growth inhibition concentration (TGI) in [7] was 56.7 µM; in test [8], > 100 µM; in [9], 87.3 µM; in test [10] it was 93.3 µM.

As for `COc1cccc(N2C(=O)CSC2c2cccc(Oc3ccccc3)c2)c1` (centres undefined), the TGI in test [1] was > 100 µM; in test [2], > 100 µM; in [4], 11.4 µM; in test [5] it was > 100 µM; in test [6] it was 53.7 µM; in test [7], 79.1 µM. For the same compound, the values for the TGI in test [8] and in test [10] were > 100 µM and 39.5 µM, respectively.

Take `COc1cc(/C=C2\C(=O)N(c3cccc([N+](=O)[O-])c3)C(c3ccccc3)S2(=O)=O)cc(OC)c1OC` (centres undefined): the TGI in test [1], in [2], in test [3], in test [4], in test [5] and in test [6] was > 100 µM each time. In addition, the TGI in test [7], in [8], in test [9] and in test [10] was > 100 µM throughout.

Turning to `NC(=O)Nc1c(Cl)cc(S(N)(=O)=O)cc1Cl`, the TGI in [1], in [2], in test [3], in test [4], in [5] and in test [6] was > 100 µM throughout. Further, the TGI in [7], in test [8], in test [9] and in [10] was > 100 µM each time.

With `Cn1nc2ccc([N+](=O)[O-])c(Cn3nnc4ccccc43)c2n1`, the TGI in test [1], in [2], in [3], in test [4], in [5] and in test [6] was > 100 µM throughout. Also, the TGI in test [7], in test [8], in test [9] and in test [10] was > 100 µM each time.

In the case of `O=[N+]([O-])c1ccccc1OCCOc1ccccc1[N+](=O)[O-]`, the TGI in [1], in test [2], in test [3], in [4], in [5] and in test [6] was > 100 µM each time. The TGI in [7], in test [8], in test [9] and in [10] was > 100 µM each time.

`CC(C)/C(Cl)=N/OC(=O)Nc1ccc(Br)cc1`: the total growth inhibition concentration (TGI) in test [1] was 2.93 µM; in test [2], 31.7 µM; in test [3], 27.1 µM; in [5] it was 26.6 µM; in test [6], 3.85 µM; in test [7], 31.2 µM. Also, the concentration for total growth inhibition (TGI) is 26.5 µM in test [8], 5.24 µM in test [9] and 34.3 µM in test [10].

Turning to `C#CCNC(CSSCC(N)C(=O)O)C(=O)O` (centres undefined), the TGI in test [1], in test [2], in test [3], in [5], in test [6] and in [7] was > 100 µM throughout. Moreover, the TGI in test [8], in test [9] and in test [10] was > 100 µM throughout.

`COc1ccc(N2CC(=O)N(C(=O)COc3ccc(OCC(=O)N4C(=O)CN(c5ccc(OC)cc5)C4=S)cc3)C2=S)cc1`: the TGI in test [3], in test [4], in test [5], in test [6], in test [7] and in test [8] was > 100 µM throughout. Besides, the TGI in test [9] and in test [10] was > 100 µM throughout.

`CC1=NNC(=O)C1C1C(=O)NN=C(c2c[nH]c3ccccc23)C1Br` (centres undefined): the TGI is 65.5 µM in test [1]; > 100 µM in test [2]; > 100 µM in test [3]; > 100 µM in [4]; 34.4 µM in [5]; > 100 µM in test [6]. In addition, the TGI was > 100 µM in test [7], > 100 µM in test [8], > 100 µM in [9] and 58.9 µM in test [10].

For `CC1CC[C@@]2(OC1)OC1C[C@H]3[C@@H]4CC=C5CC(OC6OC(CO)C(OC7OC(CO)C(O)C(OC8OCC(O)C(O)C8O)C7OC7OC(CO)C(OC8OC(C)C(OC9OC(C)C(O)C(O)C9O)C(O)C8O)C(O)C7O)C(O)C6O)CCC5(C)[C@H]4CCC3(C)C1[C@@H]2C` (some centres undefined), the TGI in test [1] worked out at 21.9 µM; in test [2] it was 19 µM; in test [3] it was 16.6 µM; in [4], 19.6 µM; in test [5], 17.7 µM; in [6], 20.1 µM. Moreover, the concentration for total growth inhibition (TGI) in [7] stood at 11.9 µM; in [8], 16.7 µM; in [9] it was 25 µM.

On to `CSc1ncc2c(n1)C(C#N)C1Sc3ccccc3N1C2=O` (centres undefined), for which the TGI in [2], in test [3], in test [5], in [6], in test [7] and in [8] was > 100 µM each time. For the same compound, the results for the TGI in [9] and in [10] were > 100 µM and 66.3 µM, respectively.

Turning to `N#Cc1c(-c2ccc(Cl)cc2)c2c(nn3c4ccc5ccccc5c4nnc23)[nH]c1=O`, the TGI in test [1] is > 100 µM; in test [2] it was 7.97 µM; in test [3], 4.06 µM; in test [4], > 69.6 µM; in test [5] it was 13.3 µM; in test [6], 3.83 µM. The total growth inhibition concentration (TGI) in test [7] is 20.6 µM; in test [8], 4.56 µM; in test [9], > 28.9 µM.

Take `C[C@@H]1OC(=O)C[C@H]2CC(=O)N(CCC3CN(C(=O)OCc4ccccc4)c4ccccc43)C[C@@H]21` (some centres undefined): the concentration for total growth inhibition (TGI) in test [2], in [3], in test [4], in test [5], in [6] and in test [7] was > 100 µM in each case. The TGI in test [8], in test [9] and in [10] was > 100 µM throughout.

As for `CCN(CCCOc1ccccc1)CCN(CC)CCCOc1ccccc1`, the TGI was > 100 µM in test [1]; 45.5 µM in test [2]; 23.5 µM in [3]; 15.5 µM in [4]; 27.8 µM in test [5]; 32 µM in test [6]. Also, the TGI in test [7] turned out to be 39.7 µM; in test [8], 40.6 µM; in test [9], 10.4 µM; in [10], 48.6 µM.

In the case of `OC1[C@@H]2[C@@H](O)CCCN2C[C@@H](O)[C@H]1O` (some centres undefined), the TGI in test [1], in [2], in [3], in test [4], in test [5] and in test [6] was > 100 µM in each case. For the same compound, the TGI in [7], in test [8], in [9] and in test [10] was > 100 µM in each case.

As to `Cc1ccc(Nc2nc3[nH]ccc3c(=O)[nH]2)cc1`, the TGI in test [1], in test [2], in test [3], in test [4], in [5] and in [6] was > 100 µM in each case. Moreover, the TGI in test [7] was > 100 µM; in test [8] it was > 100 µM; in [9], > 100 µM; in [10] it was 49.9 µM.

Consider `O=S1(=O)c2ccccc2Oc2ccc(C(/C=N/O)=N/O)cc21`, for which the TGI in [1] is 72.1 µM; in test [2], > 100 µM; in [3], 68.9 µM; in [4], > 100 µM; in test [5], > 100 µM; in [6] it was 25.7 µM. Besides, the TGI was > 100 µM in test [7], 53.5 µM in test [9] and > 100 µM in test [10].

With `CCOC(=O)c1c(C)n(Cc2ccc(Cl)cc2Cl)c2c1cc(O)c1[nH]c3c(c12)CCCC3`, the TGI in [1] is 77.1 µM; in test [2] it was 93.7 µM; in [3], 75.2 µM; in test [5], 67.2 µM; in test [6] it was 43.2 µM; in test [7], > 100 µM. The concentration for total growth inhibition (TGI) in [8] amounted to 77.6 µM; in test [9] it was 50.7 µM; in [10] it was 48.6 µM.

Consider `CN(C)CC(O)c1ccc(Cl)c2ccccc12` (centres undefined), for which the TGI in test [1] is 53.8 µM; in [2] it was > 100 µM; in [3], > 85.7 µM; in [5], > 100 µM; in test [6], 86 µM; in [7], > 73.4 µM. The TGI is > 100 µM in test [8], 11 µM in test [9] and > 89.1 µM in test [10].

With `Cc1ccc2c(c1)-c1nc(N)c(C#N)c(-c3ccc(Cl)cc3)c1CCS2(=O)=O`, the TGI in [1] is 72 µM; in [3], > 100 µM; in [5], > 100 µM; in test [6], > 100 µM; in [7], > 100 µM; in [8] it was > 100 µM. The TGI in test [10] was > 100 µM.

In the case of `CN(C)CCNc1ccc2c(=O)n(CCN(C)C)c(=O)n3c4ccc(O)cc4c(=O)c1c23`, the TGI is < 0.01 µM in test [1]; 0.53 µM in [3]; 2.15 µM in test [5]; 0.45 µM in [6]; 0.12 µM in [7]; 0.186 µM in test [8]. In addition, the TGI in test [9] is 0.417 µM; in test [10] it was 0.305 µM.

As for `O=C(/C=C(/C=C/c1ccc2[nH]ccc2c1)OB(F)F)/C=C/c1ccc2[nH]ccc2c1`, the GI50 is 0.423 µM in test [1]; 3.38 µM in [2]; 2.62 µM in [6]; 3.38 µM in [7]; 2.72 µM in test [10]. Moreover, the total growth inhibition concentration (TGI) in test [1] is > 100 µM; in [2], > 100 µM; in [6], > 100 µM; in test [7] it was > 100 µM; in test [10], 15.7 µM.
